From article PMC5082902, “Exported Epoxide Hydrolases Modulate Erythrocyte Vasoactive Lipids during Plasmodium falciparum Infection” (mBio, 2016)

Legend:
Assay in all cases: ELISA of […]([…])-DHET diol product
Assay type in all cases: biochemical
Details in all cases: 6 or 12 uM EET, 100 ug enzyme in 100 ul PBS, 37 C, 1.5 h
PfEH1 = target: T1, PfEH1 (Plasmodium falciparum, UniProt Q9Y013)
T1 construct: gene PF3D7_0301300; borders of the construct only in supplement

PfEH2 [1] = target: T2, PfEH2 (Plasmodium falciparum, UniProt Q8IM75)
T2 construct: gene PF3D7_1401300; borders of the construct only in supplement
T2 sequence (Q8IM75 entry or part of it): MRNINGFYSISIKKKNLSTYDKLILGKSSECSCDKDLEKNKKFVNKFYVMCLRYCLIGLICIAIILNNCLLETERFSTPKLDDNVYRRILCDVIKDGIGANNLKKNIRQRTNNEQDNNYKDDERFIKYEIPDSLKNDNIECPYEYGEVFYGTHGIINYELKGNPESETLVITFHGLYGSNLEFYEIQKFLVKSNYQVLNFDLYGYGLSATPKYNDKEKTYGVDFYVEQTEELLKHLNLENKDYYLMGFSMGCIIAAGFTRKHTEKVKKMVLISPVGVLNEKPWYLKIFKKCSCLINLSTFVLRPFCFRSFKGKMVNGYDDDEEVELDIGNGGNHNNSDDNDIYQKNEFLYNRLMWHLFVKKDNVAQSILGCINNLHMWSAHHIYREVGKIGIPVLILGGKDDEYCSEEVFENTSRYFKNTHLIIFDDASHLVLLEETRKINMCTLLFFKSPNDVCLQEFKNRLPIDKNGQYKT

PfEH2 [2] = target: T2, PfEH2; remark: listed apart in the source

T1 sequence (Q9Y013 entry or part of it): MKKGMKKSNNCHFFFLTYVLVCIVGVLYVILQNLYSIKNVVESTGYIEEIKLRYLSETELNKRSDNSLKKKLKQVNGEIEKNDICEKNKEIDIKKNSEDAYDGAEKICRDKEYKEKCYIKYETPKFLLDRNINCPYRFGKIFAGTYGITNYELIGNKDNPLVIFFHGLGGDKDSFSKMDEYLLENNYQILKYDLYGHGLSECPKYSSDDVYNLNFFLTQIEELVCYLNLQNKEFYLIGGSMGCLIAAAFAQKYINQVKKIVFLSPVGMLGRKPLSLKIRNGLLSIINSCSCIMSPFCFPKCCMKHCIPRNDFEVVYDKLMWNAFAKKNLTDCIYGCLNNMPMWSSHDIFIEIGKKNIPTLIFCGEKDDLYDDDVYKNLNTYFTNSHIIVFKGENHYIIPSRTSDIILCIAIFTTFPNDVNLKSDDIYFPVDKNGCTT

In the case of `CCCCC/C=C\CC1OC1C/C=C\C/C=C\CCCC(=O)O` (stereo not drawn) [11(12)-EET], the “ELISA of 11(12)-DHET diol product” value (PfEH1) is reported as “Both recombinant PfEH1 and PfEH2 enzymes increased the formation of the diol product” and the “ELISA of 11(12)-DHET diol product” value (PfEH2 [1]) is reported as “Both recombinant PfEH1 and PfEH2 enzymes increased the formation of the diol product”.

With `CCCCCC1OC1C/C=C\C/C=C\C/C=C\CCCC(=O)O` (stereo not drawn) [14(15)-EET] the “ELISA of 14(15)-DHET diol product” value (PfEH2 [2]) was “Both recombinant PfEH1 and PfEH2 enzymes increased the formation of the diol product”.
